{"source": "paper PMC10313047", "about": "“During heat stress in Myxococcus xanthus, the CdbS PilZ domain protein, in concert with two PilZ-DnaK chaperones, perturbs chromosome organization and accelerates cell death” (PLOS Genetics, 2023)", "target": "T1, His6-CdbS (Myxococcus xanthus, UniProt Q1D4C1)", "T1 construct": "gene MXAN_4328; full-length stand-alone PilZ protein (PilZ domain residues 7-82), N-terminal His6 tag (pET28a, pMS007), made in E. coli Arctic Express (DE3) RP", "T1 sequence (Q1D4C1 entry or part of it)": "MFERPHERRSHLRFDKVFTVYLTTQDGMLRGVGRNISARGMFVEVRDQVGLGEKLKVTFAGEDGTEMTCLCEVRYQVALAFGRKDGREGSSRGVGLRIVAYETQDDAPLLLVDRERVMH", "test": "bio-layer interferometry, streptavidin sensor, equilibrium one-site fit", "format": "binding", "details": "labelled compound (biotinylated c-di-GMP immobilised on sensor); 50 mM Tris-HCl pH 7, 150 mM NaCl, 10% glycerol, 0.02% Tween-20"}
{"smiles": "Nc1nc2c(ncn2[C@@H]2O[C@@H]3COP(=O)(O)O[C@H]4[C@@H](O)[C@H](n5cnc6c(=O)[nH]c(N)nc65)O[C@@H]4COP(=O)(O)O[C@H]3[C@H]2O)c(=O)[nH]1", "note": "[c-di-GMP]", "values": [{"measurement": "Kd", "result": "His6-CdbS^R9A did not detectably bind c-di-GMP"}]}
